From patent publication US10144715B2, “Piperazine derivatives as liver X receptor modulators” (priority 2014, dated 2018)
Like-named read-outs stand apart in the source and are kept apart here.

Key:
LXR α LBD protein [1] = biological target: T1, LXR α LBD protein (Homo sapiens (Human), UniProt Q13133); assay: Human LXRα coactivator recruitment FRET assay, agonist mode; assay type: biochemical
Experimental: (§1) Two μL of the DMSO solutions were transferred to the plate and 38 μL of 10 nM LXRα-LBD or LXRβ-LBD (2×) were added immediately to the wells. The plate was shaken for 5 min at rt on an orbital micro shaker (DPC MicroMix® 5), after which 40 μL of 200 nM fluorescein-SRC2-3 peptide and 20 nM Terbium-anti-GST-antibody (Cat# PV3550, Life Technologies, Grand Island, N.Y.) solution (4×) were added to all. The plate was sealed and shaken for 2 min at rt, and incubated at rt for 2 h without agitation. […] The delay and window times were set at 100 and 200 microseconds, respectively. […] The percent control vs. compound concentration data were fit into a four-parameter model, and EC50 values were calculated from the fit as the concentrations corresponding to the inflection points on the concentration-response curves.

LXR β LBD protein [2] = biological target: T2, LXR β LBD protein (Homo sapiens (Human), UniProt P55055); assay: biochemical; assay type: biochemical
Experimental: as §1
Target sequence in this assay (P55055 222-460): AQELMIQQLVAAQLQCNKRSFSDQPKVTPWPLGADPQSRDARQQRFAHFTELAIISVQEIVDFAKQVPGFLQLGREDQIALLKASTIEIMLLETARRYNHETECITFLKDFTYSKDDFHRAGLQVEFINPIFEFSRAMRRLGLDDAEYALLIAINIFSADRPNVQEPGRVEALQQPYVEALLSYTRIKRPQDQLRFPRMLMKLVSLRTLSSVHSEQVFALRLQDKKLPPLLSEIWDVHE

[3] = biological target: Gal4 DNA binding domain fused to the LBD of LXRβ in HEK293 cells (Homo sapiens (Human), UniProt P55055); assay: cell-based
Chain of Gal4 DNA binding domain fused to the LBD of LXRβ in HEK293 cells (P55055 222-460 limits assumed): as the sequence (P55055 222-460) above

[4] = biological target: Gal4 DNA binding domain fused to the LBD of LXRα in HEK293 cells (Homo sapiens (Human), UniProt Q13133); assay: LXR luciferase transcriptional reporter gene assay, agonist mode, LXRα; assay type: cell-based
Chain of Gal4 DNA binding domain fused to the LBD of LXRα in HEK293 cells (Q13133 209-447): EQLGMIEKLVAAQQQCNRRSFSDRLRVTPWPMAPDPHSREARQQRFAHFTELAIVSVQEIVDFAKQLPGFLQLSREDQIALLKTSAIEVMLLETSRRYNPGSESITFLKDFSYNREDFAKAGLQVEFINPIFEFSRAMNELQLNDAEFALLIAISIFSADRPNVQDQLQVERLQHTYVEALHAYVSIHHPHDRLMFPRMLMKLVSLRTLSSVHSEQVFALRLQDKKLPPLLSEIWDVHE

LXR β LBD protein [5] = biological target: T2, LXR β LBD protein; assay: biochemical; assay type: binding; settings: read-out: LXRβ Binding Ki
Target sequence in this assay (P55055 222-460 limits assumed): as the sequence (P55055 222-460) above

LXR α LBD protein [6] = biological target: T1, LXR α LBD protein; assay: LXR α radioligand binding assay (SPA, competition with [3H]TO901317); settings: read-out: LXRα Binding Ki
[7] = agonist mode, read-out: FRET LXRβ EC50
[8] = agonist mode, read-out: Cell LXRβ EC50
[9] = agonist mode, read-out: Cell LXRα EC50
[10] = Biological Test Example 3, agonist mode
[11] = Biological Test Example 2, agonist mode
[12] = Biological Test Example 2, agonist mode, read-out: Cell LXRα EC50

T1 sequence (Q13133 209-447): as the sequence (Q13133 209-447) above

| Compound | EC50 (LXR α LBD protein [1]; agonist mode) [µM] | FRET LXRα efficacy (LXR α LBD protein [1]; agonist mode) [%] | FRET LXRβ efficacy (LXR β LBD protein [2]; agonist mode) | EC50 (LXR β LBD protein [2]; [7]) [µM] | EC50 [3, 8] [µM] | EC50 ([4]; read-out: Cell LXRα EC50) [µM] | EC50 (LXR β LBD protein [2]; read-out: FRET LXRβ EC50) [µM] | EC50 [3] [µM] | further results |
| --- | --- | --- | --- | --- | --- | --- | --- | --- | --- |
| CS(=O)(=O)c1cc(N2CCN(C[C@H]3CC[C@H](C(F)(F)F)CC3)[C@H](c3ccccc3)C2)ccc1C(N)=O (single isomer, unassigned) [17-36] | 0.808 | 46 | 79% | 1.18 | > 20 | > 20 |  |  |  |
| Cc1ccc(CN2CCN(c3cccc(S(C)(=O)=O)c3)C[C@H]2c2ccccc2)cc1 (single isomer, unassigned) [46-5] | > 50 |  |  |  |  | > 20 | 7.16 | > 20 | FRET LXRβ efficacy (LXR β LBD protein [2]): 7159 (57) % |
| CS(=O)(=O)c1cccc(N2CCN(Cc3ccc(OC(F)(F)F)cc3)[C@H](c3ccccc3)C2)c1 (single isomer, unassigned) [46-22] | 4.62 | 42 |  |  |  | > 20 | 1.27 | 2.1 | FRET LXRβ efficacy (LXR β LBD protein [2]): 1273 (73) %; Cell LXRβ efficacy [3]: 2095 (9) % |
| CS(=O)(=O)c1cccc(N2CCN(Cc3ccc(C(F)(F)F)c(F)c3)[C@H](c3ccccc3)C2)c1 (single isomer, unassigned) [46-25] | > 50 |  | 17972 (116) % |  |  |  | 18 | 2.56 | Cell LXRβ efficacy ([3]; agonist mode): 2557 (13) %; EC50 [4, 9]: > 20 µM |
| C[C@@]1(c2ccccc2)CN(c2cccc(S(C)(=O)=O)c2)CCN1Cc1ccc(C(F)(F)F)c(Cl)c1 (single isomer, unassigned) [46-35] | > 50 |  |  |  |  |  | > 50 | > 20 | EC50 [4, 9]: > 20 µM |
| Cc1ccccc1[C@@H]1CN(c2cccc(S(C)(=O)=O)c2)CCN1Cc1ccc(C(F)(F)F)nc1 (single isomer, unassigned) [46-45] | 6.57 | 43 | 1524 (74) % |  |  |  | 1.52 | 7.52 | Cell LXRβ efficacy ([3]; agonist mode): 7516 (44) %; EC50 [4, 9]: > 20 µM |
| CS(=O)(=O)c1cccc(N2CCN(Cc3ccc(C(F)(F)F)nc3)[C@H](c3ccccc3Cl)C2)c1 (single isomer, unassigned) [46-56] | 27 | 47 |  |  |  | > 20 | 2.25 | > 20 | FRET LXRβ efficacy (LXR β LBD protein [2]): 2252 (40) % |
| CC(C)[C@H]1CC[C@H](CN2CCN(c3cccc(S(C)(=O)=O)c3)C[C@H]2c2ccccc2)CC1 (single isomer, unassigned) [48-14] | > 50 |  | 67% | 12.3 | > 20 | > 20 |  |  |  |
| CS(=O)(=O)c1cccc(N2CCN(C[C@H]3CC[C@H](C(F)(F)F)CC3)[C@H](c3ccccc3)C2)c1 (single isomer, unassigned) [48-32] | 15.3 | 59 | 97% | 3.8 | 3.34 | 19 |  |  | Cell LXRβ efficacy ([3]; agonist mode): 15%; Cell LXRα efficacy [4]: 19000 (4) % |
| NS(=O)(=O)c1cccc(N2CCN(C[C@H]3CC[C@@H](C(F)(F)F)CC3)[C@H](c3ccccc3)C2)c1 (single isomer, unassigned) [48-34] | 2.31 | 25 | 39% | 0.704 | 3.82 | 9.86 |  |  | Cell LXRβ efficacy ([3]; agonist mode): 32%; Cell LXRα efficacy [4]: 9858 (48) % |
| NS(=O)(=O)c1cccc(N2CCN(C[C@H]3CC[C@H](C(F)(F)F)CC3)[C@H](c3ccccc3)C2)c1 (single isomer, unassigned) [48-36] | > 50 |  | 25% | 16.4 | > 20 | > 20 |  |  |  |
| NS(=O)(=O)c1cccc(N2CCN(C[C@H]3CC[C@H](C(F)(F)F)CC3)[C@@H](c3ccccc3)C2)c1 (single isomer, unassigned) [48-37] | 2.35 | 33 | 30% | 1.29 | 1.18 | 2.83 |  |  | Cell LXRβ efficacy ([3]; agonist mode): 19%; Cell LXRα efficacy [4]: 2829 (39) % |
| CS(=O)(=O)c1cccc(N2CCN(C[C@H]3CCN(CC(F)(F)F)C3)[C@H](c3ccccc3)C2)c1 (single isomer, unassigned) [48-60] |  |  |  |  |  |  |  | 6.83 | EC50 (LXR α LBD protein [1]; [10]): 16.1 µM; FRET LXRα efficacy (LXR α LBD protein [1]; [10]): 27%; EC50 (LXR β LBD protein [2]): 1.03 µM; FRET LXRβ efficacy (LXR β LBD protein [2]; [10]): 1032 (33) %; Cell LXRβ efficacy [3, 11]: 6832 (7) %; Cell LXRα efficacy [4]: 18622 (13) %; EC50 [4, 12]: 18.6 µM |
| CS(=O)(=O)c1cccc(N2CCN(C[C@@H]3CCN(CC(F)(F)F)C3)[C@H](c3ccccc3)C2)c1 (single isomer, unassigned) [48-62] |  |  |  |  |  |  |  | 4.68 | EC50 (LXR α LBD protein [1]; [10]): 9.98 µM; FRET LXRα efficacy (LXR α LBD protein [1]; [10]): 39%; EC50 (LXR β LBD protein [2]): 2.1 µM; Cell LXRβ efficacy [3, 11]: 4682 (8) %; EC50 [4, 12]: > 20 µM |
| CS(=O)(=O)c1cc(N2CCN(C[C@H]3CC[C@H](C(F)(F)F)CC3)[C@H](c3ccccc3)C2)ccc1C#N (single isomer, unassigned) [50-3] |  |  |  |  |  | > 20 |  |  | EC50 (LXR α LBD protein [1]; [10]): 12.9 µM; FRET LXRα efficacy (LXR α LBD protein [1]; [10]): 71%; FRET LXRβ efficacy (LXR β LBD protein [2]; [10]): 52%; EC50 (LXR β LBD protein [2]; Biological Test Example 3, agonist mode, read-out: FRET LXRβ EC50): 1.66 µM; EC50 ([3]; Biological Test Example 2, agonist mode, read-out: Cell LXRβ EC50): > 20 µM |
| COC(=O)c1cnc(N2CCN(c3ccc(F)c(S(C)(=O)=O)c3)C[C@H]2C(C)C)nc1C(F)(F)F [9-2, methyl (R)-2-(4-(4-fluoro-3-(methylsulfonyl)phenyl)-2-isopropylpiperazin-1-yl)-4-(trifluoromethyl)pyrimidine-5-carboxylate] |  |  |  |  |  |  | 0.009 | 0.086 | Ki (LXR β LBD protein [5]): 0.01 µM; Ki (LXR α LBD protein [6]): 0.095 µM; FRET LXRβ efficacy (LXR β LBD protein [2]): 9 (91) %; Cell LXRβ efficacy [3]: 86 (34) %; Cell LXRα efficacy [4]: 543 (54) %; EC50 [4, 9]: 0.543 µM |
| CC(C)(O)c1ccc(CN2CCN(c3cccc(S(C)(=O)=O)c3)C[C@H]2c2ccccc2)cc1 [10-11, (R)-2-(4-((4-(3-(methylsulfonyl)phenyl)-2-phenylpiperazin-1-yl)methyl)phenyl)propan-2-ol] | > 50 |  |  |  |  | > 20 | > 50 | > 20 |  |
| CS(=O)(=O)c1cccc(N2CCN(Cc3ccc(OC(F)F)cc3)[C@H](c3ccccc3)C2)c1 [46-10, (R)-1-(4-(difluoromethoxy)benzyl)-4-(3-(methylsulfonyl)phenyl)-2-phenylpiperazine] | 40.7 |  |  |  |  |  | 25 | > 20 | FRET LXRα efficacy (LXR α LBD protein [1]): 40680 (55) %; FRET LXRβ efficacy (LXR β LBD protein [2]): 24999 (94) %; EC50 [4]: > 20 µM |
| C[C@@]1(c2ccccc2)CN(c2cccc(S(C)(=O)=O)c2)CCN1Cc1ccc(C(F)(F)F)cc1 [46-20, (R)-2-methyl-4-(3-(methylsulfonyl)phenyl)-2-phenyl-1-(4-(trifluoromethyl)benzyl)piperazine] | > 50 |  |  |  |  |  | > 50 | > 20 | EC50 [4, 9]: > 20 µM |
| CS(=O)(=O)c1cccc(N2CCN(Cc3ccc(C(F)(F)F)cn3)[C@@H](c3ccccc3)C2)c1 [46-64, (S)-4-(3-(methylsulfonyl)phenyl)-2-phenyl-1-((5-(trifluoromethyl)pyridin-2-yl)methyl)piperazine] |  |  | 34% | 1.86 |  |  |  | 5.8 | Ki (LXR β LBD protein [5]): > 2.5 µM; Cell LXRβ efficacy ([3]; agonist mode): 5804 (13) % |
| CS(=O)(=O)c1cccc(N2CCN(Cc3ccc(C(F)(F)F)o3)[C@@H](c3ccccc3)C2)c1 [46-66, (S)-4-(3-(methylsulfonyl)phenyl)-2-phenyl-1-((5-(trifluoromethyl)furan-2-yl)methyl)piperazine] |  |  |  | > 50 |  |  |  | > 20 | Ki (LXR β LBD protein [5]): 0.207 µM |
| benzyl 4-(3-(methylsulfonyl)phenyl)-2-phenylpiperazine-1-carboxylate [1-14] | 1.54 | 27 | 25% |  | > 20 | > 20 |  |  |  |
| tert-butyl 2-(2-bromophenyl)-4-(3-(methylsulfonyl)phenyl)piperazine-1-carboxylate [1-9] | > 50 |  | 32% | 0.564 | > 20 | > 20 |  |  |  |
| tert-butyl 2-cyclohexyl-4-(3-(methylsulfonyl)phenyl)piperazine-1-carboxylate [1-11] | 19.1 | 27 | 25% | 0.34 | 15.7 | 16.3 |  |  | Cell LXRβ efficacy ([3]; agonist mode): 2%; Cell LXRα efficacy [4]: 16278 (16) % |
| tert-butyl 2-methyl-4-(3-(methylsulfonyl)phenyl)-2-phenylpiperazine-1-carboxylate [1-10] | 3.53 | 28 | 31% | 0.5 | > 20 | > 20 |  |  |  |
